Data on 18 compounds can be found in patent US6444434B1, “FVIIa/TF activity inhibiting compounds” (Novo Nordisk A/S, priority 1999, dated 2002).

Experiment [1] relates to citrated normal human plasma. Briefly: FVIIa/TF-initiated plasma clotting assay. The conditions noted are these: ratio of clotting time with/without compound; final compound concentration 0.33 mM; thromboplastin (Innovin). The method, then:
The test compounds, 20 mM in DMSO, are diluted in citrated normal human plasma just before the analysis (1+19) and placed in the sample carousel. 55 μl sample (compound in plasma) is mixed with 55 μl of thromboplastin (Innovin, Dade) and incubated for 5 min. The clotting reaction is started by adding 55 μl of a 25-mM CaCl2 solution, yielding a final compound concentration of 0.33 mM. The clotting time is measured using an ACL 300 R coagulometer. The ratio between the clotting time in the presence and absence of test compound is used to quantify the anticoagulant efficiency.

The target of experiment [2] is T1, FVIIa/TF-catalyzed activation of FX (Homo sapiens, UniProt P08709).
T1 construct: Single-chain FVII may be converted to two-chain FVIIa by factor Xa
Briefly: FX activation assay (FVIIa/TF-catalyzed FX activation). It is filed as biochemical.

A further experiment concerns the target T2, TF/FVIIa (Homo sapiens, UniProt P08709).
T2 construct: Single-chain FVII may be converted to two-chain FVIIa by factor Xa; 20 microliters of soluble TF (250 nM in buffer)
T2 sequence (P08709 61-212 limits assumed): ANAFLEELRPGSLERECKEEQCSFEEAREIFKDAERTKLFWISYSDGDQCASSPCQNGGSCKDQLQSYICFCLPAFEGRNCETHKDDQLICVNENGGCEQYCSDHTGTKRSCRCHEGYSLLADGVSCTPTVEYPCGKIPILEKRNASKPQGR
T2 sequence (P08709 213-466 limits assumed): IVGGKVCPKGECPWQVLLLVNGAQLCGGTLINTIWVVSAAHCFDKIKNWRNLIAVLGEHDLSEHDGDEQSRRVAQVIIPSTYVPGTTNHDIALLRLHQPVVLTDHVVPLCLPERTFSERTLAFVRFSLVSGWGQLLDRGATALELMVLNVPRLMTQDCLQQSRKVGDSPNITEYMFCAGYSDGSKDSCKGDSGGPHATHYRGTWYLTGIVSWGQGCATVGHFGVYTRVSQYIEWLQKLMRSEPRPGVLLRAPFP
Briefly: FVIIa/TF amidolytic assay. It is filed as biochemical. Conditions: 10 nM FVIIa, 25 nM soluble TF, 1 mM S-2288. The procedure:
(§1) Compound solutions and buffer are the same as in the above FX activation assay. 150 microliters of FVIIa (13.3 nM in buffer), 20 microliters of soluble TF. (250 nM in buffer), 10 microliters of test compound (various concentrations in DMSO) and 20 microliters of substrate S-2288 (10 mM in water) is mixed in microtiter plate well. This gives final concentrations of FVII(a, TF and S-2288 of 10 nM, 25 nM and 1 mM, respectively. The absorbance at 405 nm is measured continuously for 20 minutes. The degree of inhibition is calculated from the slope of the absorbance curve compared to the curve obtained when using DMSO without test compound.
as §1, with “TF” for “TF.”, “DM80)” for “DMSO)”, “FVIIa,” for “FVII(a,”

The next experiment deals with FXa (Homo sapiens, UniProt P00742). Briefly: FXa amidolytic assay. It is filed as biochemical. The conditions noted are these: 1 nM FXa, 1 mM S-2765; read-out: FX amidolytic IC50 FX. The method, then:
Compound solutions and buffer are the same as in the above FX activation assay. 170 microliters of FXa (1.17 nM in buffer), 10 microliters of test compound (various concentrations in DMSO) and 20 microliters of substrate S-2765 (10 mM in water) is mixed in a microtiter plate well. This gives-final concentrations of FXa and S-2765 of 1 nM and 1 mM, respectively. The absorbance at 405 nm is measured continuously for 20 minutes. The degree of inhibition is calculated from the slope of the absorbance curve compared to the curve obtained when using DMSO without test compound.
Compound solutions and buffer are the same as in the above FX activation assay. 170 microliters of FXa (1.17 nM in buffer), 10 microliters of test compound (various concentrations in DMSO) and 20 microliters of substrate S-2765 (10 mM in water) is mixed in a microtiter plate well. This gives final concentrations of FXa and S-2765 of 1 nM and 1 mM, respectively. The absorbance at 405 nm is measured continuously for 20 minutes. The degree of inhibition is calculated from the slope of the absorbance curve compared to the curve obtained when using DMSO without test compound.

In experiment [3] the target is T3, FVIIa/TF-catalyzed activation of FX (Homo sapiens, UniProt P08709+P13726).
T3 construct: Single-chain FVII may be converted to two-chain FVIIa by factor Xa
Briefly: FX activation assay (FVIIa/TF-catalyzed FX activation). It is filed as biochemical. Conditions: second part of table, Examples 14-22.

[4] abbreviates: 100 pM FVIIa, 5 pM TF, 175 nM FX, FXa read with S-2765, read-out: TF/FVII/FX (FX activation) IC50 FXa.
Where [5] appears, read: second part of table, Examples 14-22, read-out: IC50 (μM) FX activation by FVIIa/TF.

Read-outs that look alike come from different tables or passages of the source.

T1 sequence (P13726 33-295, one chain of several, further chain): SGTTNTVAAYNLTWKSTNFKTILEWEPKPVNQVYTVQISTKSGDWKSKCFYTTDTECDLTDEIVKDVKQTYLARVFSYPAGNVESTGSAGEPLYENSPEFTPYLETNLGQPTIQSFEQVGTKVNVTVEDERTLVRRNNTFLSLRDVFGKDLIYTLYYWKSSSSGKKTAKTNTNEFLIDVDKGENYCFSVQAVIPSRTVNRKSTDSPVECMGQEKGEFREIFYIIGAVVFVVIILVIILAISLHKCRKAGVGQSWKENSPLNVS
FXa, sequence (P00742 41-179 limits assumed): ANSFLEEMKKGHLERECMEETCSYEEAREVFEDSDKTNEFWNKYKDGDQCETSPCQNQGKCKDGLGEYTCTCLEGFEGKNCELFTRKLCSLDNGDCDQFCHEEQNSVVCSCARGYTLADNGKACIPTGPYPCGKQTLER
FXa, sequence (P00742 235-488 limits assumed): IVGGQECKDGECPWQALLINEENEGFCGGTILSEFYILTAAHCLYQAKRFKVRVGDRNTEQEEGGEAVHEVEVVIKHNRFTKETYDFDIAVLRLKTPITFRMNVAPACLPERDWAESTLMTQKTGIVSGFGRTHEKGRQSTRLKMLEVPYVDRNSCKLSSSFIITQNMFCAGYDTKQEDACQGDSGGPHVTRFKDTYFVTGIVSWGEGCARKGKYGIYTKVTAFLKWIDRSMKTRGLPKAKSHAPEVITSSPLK
T3 sequence (P13726 33-295, one chain of several): as the sequence (P13726 33-295, one chain of several, further chain) above

Regarding `N=c1n(CCN2CCCC2)c2ccccc2n1CC(O)COc1ccc(Cl)cc1` (stereo not drawn) [Example 5, 1-(4-Chloro-phenoxy)-3-[2-imino-3-(2-pyrrolidin-1-yl-ethyl)-2,3-dihydro-benzoimidazol-1-yl]-propan-2-ol], the Clot ratio in experiment [1] is given as >3. In addition, the IC50 is 18 µM in experiment [2] (setting [4]), > 200 µM on TF/FVIIa and > 200 µM on FXa.

For the compound `CN(C)CCNCC(O)CN1CCn2c3c(c4cc(C5CCCCC5)ccc42)CCCC31` (stereo not drawn) [Example 6, 1-(8-Cyclohexyl-1,2,3a,4,5,6-hexahydro-pyrazino[3,2,1-jk]carbazol-3-yl)-3-(2-dimethylamino-ethylamino)-propan-2-ol], the Clot ratio in experiment [1] is >3. In addition, the IC50 in experiment [2] (setting [4]) was 17 µM; on TF/FVIIa, > 200 µM; at FXa, > 200 µM.

Take `COc1cccc(/C=N\Nc2nc(Nc3ccccc3)nc(Nc3ccc(C)cc3C)n2)c1O` [Example 7, 2-{[4-(2,4-Dimethyl-phenylamino)-6-phenylamino-[1,3,5]triazin-2-yl]-hydrazonomethyl}-6-methoxy-phenol]: in experiment [1], the Clot ratio is reported as 1.03. Also, the IC50 in experiment [2] (setting [4]) was 17 µM; against TF/FVIIa, > 200 µM; at FXa, > 200 µM.

As to `CN1CCN(CC(=O)N2CCn3c4c(c5cc(C6CCCCC6)ccc53)CCCC42)CC1` (stereo not drawn) [Example 8, 1-(8-Cyclohexyl-1,2,3a,4,5,6-hexahydro-pyrazino[3,2,1-jk]carbazol-3-yl)-2-(4-methyl-piperazin-1-yl)-ethanone], in experiment [1], the Clot ratio came to 2.72. The IC50 is 14 µM in experiment [2] (setting [4]), > 200 µM on TF/FVIIa and > 200 µM at FXa.

With `CC(C)Cc1ccc(C(C)CNC(=N)C(C)c2ccc(CC(C)C)cc2)cc1` (stereo not drawn) [Example 9, 2-(4-Isobutyl-phenyl)-N-[2-(4-isobutyl-phenyl)-propyl]-propionamidine], the Clot ratio in experiment [1] is >3. The IC50 in experiment [2] (setting [4]) was 11 µM; on TF/FVIIa, > 200 µM; at FXa, > 200 µM.

For `CCCCCCCCCCCCCCCCn1c2c(c(=N)c3c1CCC3)CCC2` [Example 10, 4-Hexadecyl-2,3,4,5,6,7-hexahydro-1H-4-aza-s-indacen-8-ylideneamine], the Clot ratio in experiment [1] worked out at 2.84. Further, the IC50 in experiment [2] (setting [4]) is 7.7 µM; against TF/FVIIa, > 200 µM; on FXa it was > 200 µM.

In the case of `CCC(=C(c1ccc(OC)cc1)c1ccc(OC)cc1)c1cn(CC(O)CN2CCCC2)c2ccccc12` (stereo not drawn) [Example 11, 1-{3-[1-Ethyl-2,2-bis-(4-methoxy-phenyl)-vinyl]-indol-1-yl}-3-pyrrolidin-1-yl-propan-2-ol], the Clot ratio in experiment [1] stood at 1.64. In addition, the figures for the IC50 (in experiment [2] (setting [4]); on TF/FVIIa; at FXa) were 7.7 µM, > 200 µM and > 200 µM, respectively.

With `COc1ccc(/C=C2\c3ccccc3-c3ccc(C(=O)CCCCN4CCCCC4)cc32)cc1OC` [Example 12, 1-[9-(3,4-Dimethoxy-benzylidene)-9H-fluoren-2-yl]-5-piperidin-1-yl-pentan-1-one], the Clot ratio in experiment [1] was 1.2. Moreover, the figures for the IC50 (in experiment [2] (setting [4]); against TF/FVIIa; at FXa) were 7 µM, > 200 µM and > 200 µM, respectively.

As for `CCCCCCCOc1ccc(/C(=N\C2CC(C)(C)NC(C)(C)C2)c2ccccc2)cc1` [Example 13, [(4-Heptyloxy-phenyl)-phenyl-methylene]-(2,2,6,6-tetramethylpiperidin-4-yl)-amine], in experiment [1], the Clot ratio was 2.06. The figures for the IC50 (in experiment [2] (setting [4]); against TF/FVIIa; on FXa) were 5.8 µM, > 200 µM and > 200 µM, respectively.

For `CCN(CC)CCCC(C)Nc1nc(/C=C/C=C/c2ccccc2)nc2cc(Cl)ccc12` (stereo not drawn) [Example 14, N-[7-chloro-2-(4-phenyl-buta-1,3-dienyl)-quinazolin-4-yl]-5-N,N-diethyl-aminopentane-2-amine], in experiment [2] (setting [5]), the IC50 is < 20 µM.

Consider `CCN(CC)CCCC(C)Nc1nc(C=Cc2ccc(Br)cc2Br)nc2cc(Cl)ccc12` (stereo not drawn) [Example 15, N4-{7-chloro-2-[2-(2,4-dibromo-phenyl)-vinyl]-quinazolin-4-yl}-N1,N1-diethyl-pentane-1,4-diamine], for which the IC50 in experiment [2] (setting [5]) is < 20 µM.

Consider `CCN(CC)CCCC(C)Nc1nc(/C=C/c2ccc(Br)cc2)nc2cc(Cl)ccc12` (stereo not drawn) [Example 16, N4-{2-[2-(4-bromo-phenyl)-vinyl]-7-chloro-quinazolin-4-yl}-N1,N1-diethyl-pentane-1,4-diamine], for which the IC50 in experiment [2] (setting [5]) was < 20 µM.

In the case of `CN(C)CCCN(C)Cc1cn(Cc2ccc(Cl)c(Cl)c2)c2cc(Cl)c(OCc3ccccc3)cc12` [Example 17, N-[5-benzyloxy-6-chloro-1-(3,4-dichlorobenzyl)-1H-indol-3-ylmethyl]-N,N′N′-trimethylpropan-1,3-diamine], in experiment [2] (setting [5]), the IC50 is < 20 µM.

With `CN(C)C1CCN(Cc2c[nH]c3ccc(OCc4ccccc4)cc23)CC1` [Example 18, N-[5-benzyloxy-1H-indol-3-ylmethyl]-4-dimethylaminopiperidine], the IC50 in experiment [2] (setting [5]) was < 20 µM.

In the case of `NC(CC(=O)NC(Cc1c[nH]c2ccccc12)C(=O)O)(P(=O)(O)O)P(=O)(O)O` (stereo not drawn) [Example 19, 2-(3-amino-3,3-bis-phosphono-propionylamino)-3-(1H-indol-3-yl)-propionic acid], in experiment [2] (setting [5]), the IC50 is < 20 µM.

For the compound `CN(C)CCCNC(=O)c1cc2cc(OCc3ccccc3)ccc2n1Cc1ccc(Cl)c(Cl)c1` [Example 20], the IC50 in experiment [2] (setting [5]) was < 20 µM.

For `CN(C)CCc1cn(Cc2ccc(Cl)c(Cl)c2)c2cc(Cl)c(OCc3ccccc3)cc12` [Example 21, N,N-dimethyl-1-(3,4-dichlorobenzyl)-5-benzyloxy-6-chlorotrypamine], in experiment [3], the IC50 was < 20 µM.

Take `CCC(=C(c1ccc(OC)cc1)c1ccc(OC)cc1)c1cn(CC(O)CN2CCCC2)c2ccccc12` (stereo not drawn) [Example 22, 1-{3-[1-ethyl-2,2-bis-(4-methoxy-phenyl)-vinyl]-indol-1-yl}-3-pyrrolidin-1-yl-propan-2-ol]: the IC50 in experiment [2] (setting [5]) is < 20 µM.
